# Measurements: publication PMC4149317 (Acta biomaterialia, 2013)
# What was measured:
# [1] = target: T1, VEGF (rhVEGF165) (Homo sapiens, UniProt P15692); test: VEGF binding to PEG microspheres in serum-containing and albumin-only solutions; conditions: 0.4% peptide density, albumin-only solution (1.25 wt.% BSA in PBS); p < 0.05 (Fig. 2D)
# T1 sequence (P15692 1-191 isoform P15692-4): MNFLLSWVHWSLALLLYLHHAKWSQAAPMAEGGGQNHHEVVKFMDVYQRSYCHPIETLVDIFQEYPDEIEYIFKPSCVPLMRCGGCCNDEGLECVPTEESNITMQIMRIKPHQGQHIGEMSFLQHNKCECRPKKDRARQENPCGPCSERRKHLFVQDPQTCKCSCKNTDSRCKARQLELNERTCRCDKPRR
# [2] = ref [27], cited from earlier work
# [3] = test system: VEGF; conditions: soluble VBP vs soluble VBPWT; ref [27]; cited from earlier work
# [4] = test system: endothelial cells; conditions: VEGF supplement to endothelial cells; ref [30]; cited from earlier work
# [5] = target: T1, VEGF (rhVEGF165); test: Heparin modulation of VEGF binding to microspheres
substance,measurement,setting,value
CEFdAdYdLdIDFNWEYPASK [VBP],"KD, VBP-VEGF vs VBPWT-VEGF, albumin-only solution",[1],exhibited a lower KD than VBPWT-VEGF
same,Stability against protease-mediated degradation,[2]; four D-substituted amino acids vs wild-type,enhanced peptide stability against protease-mediated degradation
same,Serum stability of soluble peptide,[2]; soluble VBP vs soluble VBPWT,higher than that of soluble VBPWT
same,VEGF binding affinity of soluble peptide,[3],higher than that of soluble VBPWT
VEGF,Endothelial proliferation below 1 ng ml^−1 VEGF,[4],proliferation is decreased at VEGF concentrations below 1 ng ml^−1
same,VEGF concentration of maximal endothelial proliferation,[4],1 to 1.2 ng/mL
heparin,Effect of soluble heparin on specificity of VEGF binding,"[5]; 10 µg ml^−1 UFH in albumin-containing solution, 1.6% peptide density (Fig. 3C)",reduced non-specific binding of VEGF
same,Effect of soluble heparin on VEGF binding affinity,"[5]; physiologic level of soluble heparin, UFH 10 µg ml^−1",increased VEGF binding affinity
